For 26 compounds, IC50 results are on record in patent publication US12612403B2, “Nitrogen-containing heterocyclic derivative inhibitor, and preparation method therefor and use thereof” (SHANGHAI HANSOH BIOMEDICAL CO., LTD., priority 2024, dated 2026).

pIC50: −log10 of the molar value.

The subject of this test is PCSK9 secreted by HepG2 cells. Description: Effect on the concentration of PCSK9 secreted by HepG2 cells (ELISA). The test is classed as cell-based. Conditions: Homo sapiens, 48 hours, PCSK9 in culture medium by ELISA. How it is done:
1. Experimental objective: To detect the inhibitory effect of the compounds on PCSK9.
2. Experimental method: • 1) HepG2 cell strain was cultured in the complete culture medium at 37° C., 5% CO2 to 70-90% confluence. • 2) The cells were digested and resuspended in the experimental culture medium, inoculated at 25,000 cells/well/200 μL in a 96-well cell culture plate, and cultured at 37° C. and 5% CO2 for 20-24 hours. • 3) The culture medium was removed from the cell culture plate, and the cell culture plate was washed once by adding 200 ul of the experimental culture medium to each well. • 4) Preparation of positive control compound and compound to be tested: the positive control compound and the compound to be tested were diluted on the compound plate. • 5) The diluted compound was added to the cell culture plate at 250 μL per well and incubated at 37° C. and 5% CO2 for 48 hours. • 6) The cell culture medium was collected at 200 μL per well and cryopreserved at −80° C. for later use. • 7) A sample of the cell culture medium was taken from the −80° C. cryopreservation condition, dissolved, vortexed, and centrifuged for later use. • 8) Preparation of standard curve: corresponding volumes of Dilution buffer were successively added to respective standard tubes, and in the order of the concentrations of 10, 5, 2.5, 1.25, 0.625, 0.313, 0.16, 0 ng/mL, the standard was diluted in series by taking the corresponding volume from the original tube or the last concentration tube. • 9) Preparation of washing liquid: 10x Wash buffer was diluted into 1x with Milli-Q for later use. • 10) According to the standard curve wells and sample wells set according to a plate map, 100 μL/well of the corresponding standards and culture medium samples were added to the wells, with 2 replicate wells. A self-adhesive seal was applied, the plate was placed on a plate shaker at room temperature, gently shaken, uniformly mixed, and incubated for 1 hour. • 11) The plate was placed on the plate washer, the washing liquid was set to 350 μL per well, and the plate was washed 4 times repeatedly. • 12) 100 μL/well of an HRP-conjugated detection antibody was added, a self-adhesive seal was applied, and the plate was placed on the plate shaker, well mixed uniformly, and incubated for 1 hour. • 13) The plate was placed on the plate washer, the washing liquid was set to 350 μL per well, and the plate was washed 4 times repeatedly. • 14) 100 μL/well of Substrate reagent was added, and the plate was placed in the dark, applied with a self-adhesive seal, placed on the plate shaker, well mixed uniformly, and incubated for 10-20 minutes. • 15) 100 μL of Stop solution (1N H2SO4) was added to each well and mixed uniformly. • 16) The optical density (OD) value in each well was measured in sequence at a wavelength of 450 nm by the microplate reader. Detection was carried out within 30 min after the reaction was stopped.
3. Experimental data processing method: After the OD values were read by the microplate reader, the OD value of the 0-concentration standard in the standard group was subtracted from the OD values of the standards, control group, and samples to obtain the actual OD values for these wells. A standard curve was plotted with Graphpad and the concentration of the sample was calculated. If the dilution was performed during the sample detection, the calculated sample concentration was necessarily multiplied by the corresponding dilution ratio in the final calculation, which was the actual concentration of the sample. Inhibition rate=(actual concentration in control−actual concentration in sample)/actual concentration in control*100. According to the inhibition rates corresponding to the different concentrations, IC50 was derived by Graphpad.

A word on the pIC50: it is −log10 of the IC50, conventionally taken in molar units. Read a low pIC50 as a high IC50. In turn, `O=C1c2cccc(C(F)(F)F)c2CN1c1ccc(N[C@H]2CC[C@H](Nc3nc4cc(F)ccn4n3)C2)nc1` [Example 26] gave a pIC50 of 4.64.
`O=C1c2ncc(F)cc2CN1c1ccc(N[C@H]2CC[C@H](Nc3nc4cc(C(F)(F)F)ccn4n3)C2)nc1` [Example 27, 3-Fluoro-6-(6-(((1S,3S)-3-((7-(trifluoromethyl)-[1,2,4]triazolo[1,5-a]pyridin-2-yl)amino)cyclopentyl)amino)pyridin-3-yl)-5,6-dihydro-7H-pyrrolo[3,4-b]pyridin-7-one] had a pIC50 of 4.92.
In the case of `CC(C)(C)c1ccc2c(n1)C(=O)N(c1ccc(N[C@H]3CC[C@H](Nc4nc5cc(F)ccn5n4)C3)nc1)C2` [Example 49, 2-(Tert-butyl)-6-(6-(((1S,3S)-3-((7-fluoro-[1,2,4]triazolo[1,5-a]pyridin-2-yl)amino)cyclopentyl)amino)pyridin-3-yl)-5,6-dihydro-7H-pyrrolo[3,4-b]pyridin-7-one] it was 5.57; in that of `Cc1cc2c(c(C)n1)CN(c1ccc(N[C@H]3CC[C@H](Nc4nc5cc(F)ccn5n4)C3)nc1)C2=O` [Example 51, 2-(6-(((1S,3S)-3-((7-fluoro-[1,2,4]triazolo[1,5-a]pyridin-2-yl)amino)cyclopentyl)amino)pyridin-3-yl)-4,6-dimethyl-2,3-dihydro-1H-pyrrolo[3,4-c]pyridin-1-one], 4.67.
The result for `O=C1N(c2ccc(N[C@H]3CC[C@H](Nc4nc5cc(F)ccn5n4)C3)nc2)CCC12CC2` [Example 54, 5-(6-(((1S,3S)-3-((7-fluoro-[1,2,4]triazolo[1,5-a]pyridin-2-yl)amino)cyclopentyl)amino)pyridin-3-yl)-5-azaspiro[2.4]heptan-4-one] reads 4.63; that for `Cc1nccc2c1CN(c1ccc(N[C@H]3CC[C@H](Nc4nc5cc(C(F)(F)F)ccn5n4)C3)nc1)C2=O` [Example 57, 4-methyl-2-(6-(((1S,3S)-3-((7-(trifluoromethyl)-[1,2,4]triazolo[1,5-a]pyridin-2-yl)amino)cyclopentyl)amino)pyridin-3-yl)-2,3-dihydro-1H-pyrrolo[3,4-c]pyridin-1-one], 5.77.
The result for `O=C1N(c2ccc(N[C@H]3CC[C@H](Nc4nc5cc(C(F)(F)F)ccn5n4)C3)nc2)CCC12CC2` [Example 58, 5-(6-(((1S,3S)-3-((7-(trifluoromethyl)-[1,2,4]triazolo[1,5-a]pyridin-2-yl)amino)cyclopentyl)amino)pyridin-3-yl)-5-azaspiro[2.4]heptan-4-one] reads 4.95.
Consider `Cc1cccnc1C(=O)Nc1ccc(N[C@H]2CC[C@H](Nc3nc4cc(C(F)(F)F)ccn4n3)C2)nc1` [Example 60], for which the pIC50 is 4.56.
In the case of `O=C1c2cc(F)cnc2CN1c1ccc(N[C@H]2CC[C@H](Nc3nc4cc(C(F)(F)F)ccn4n3)C2)nc1` [Example 61, 3-fluoro-6-(6-(((1S,3S)-3-((7-(trifluoromethyl)-[1,2,4]triazolo[1,5-a]pyridin-2-yl)amino)cyclopentyl)amino)pyridin-3-yl)-6,7-dihydro-5H-pyrrolo[3,4-b]pyridin-5-one] it was 6.22; in that of `CN(Cc1ccc(N[C@H]2CC[C@H](Nc3nc4cc(C(F)(F)F)ccn4n3)C2)nc1)C(=O)c1ccccn1` [Example 62, N-methyl-N-(6-(((1S,3S)-3-((7-(trifluoromethyl)-[1,2,4]triazolo[1,5-a]pyridin-2-yl)amino)cyclopentyl)amino)pyridin-3-yl)methylpicolinamide], 4.75; in that of `CC(C)(O)c1cccn(-c2ccc(N[C@H]3CC[C@H](Nc4nc5cc(C(F)(F)F)ccn5n4)C3)nc2)c1=O` [Example 63, 3-(2-hydroxypropan-2-yl)-6′-(((1S,3S)-3-((7-(trifluoromethyl)-[1,2,4]triazolo[1,5-a]pyridin-2-yl)amino)cyclopentyl)amino)-2H-[1,3′-bipyridine]-2-one], 4.58.
For `N#Cc1cc2c(cn1)CN(c1ccc(N[C@H]3CC[C@H](Nc4nc5cc(C(F)(F)F)ccn5n4)C3)nc1)C2=O` [Example 66, 1-carbonyl-2-(6-(((1S,3S)-3-((7-(trifluoromethyl)-[1,2,4]triazolo[1,5-a]pyridin-2-yl)amino)cyclopentyl)amino)pyridin-3-yl)-2,3-dihydro-1H-pyrrolo[3,4-c]pyridine-6-carbonitrile], the pIC50 is 6.10. This pIC50 lies 1.52 log units higher than the previous one.
The compound `Cc1ccc2c(n1)CN(c1ccc(N[C@H]3CC[C@H](Nc4nc5cc(C(F)(F)F)ccn5n4)C3)nc1)C2=O` [Example 67, 2-methyl-6-(6-(((1S,3S)-3-((7-(trifluoromethyl)-[1,2,4]triazolo[1,5-a]pyridin-2-yl)amino)cyclopentyl)amino)pyridin-3-yl)-6,7-dihydro-5H-pyrrolo[3,4-b]pyridin-5-one] gave a pIC50 of 4.77. Against the preceding compound, the pIC50 is 1.33 log units lower.
The result for `O=c1[nH]cccc1-c1ccc(N[C@H]2CC[C@H](Nc3nc4cc(C(F)(F)F)ccn4n3)C2)nc1` [Example 73, 6′-(((1S,3S)-3-((7-(trifluoromethyl)-[1,2,4]triazolo[1,5-a]pyridin-2-yl)amino)cyclopentyl)amino)-[3,3′-bipyridine]-2(1H)-one] reads 4.84; that for `CC(C)(O)c1ccn(-c2ccc(N[C@H]3CC[C@H](Nc4nc5cc(C(F)(F)F)ccn5n4)C3)nc2)c(=O)c1` [Example 81, 4-(2-hydroxypropan-2-yl)-6′-(((1S,3S)-3-((7-(trifluoromethyl)-[1,2,4]triazolo[1,5-a]pyridin-2-yl)amino)cyclopentyl)amino)-2H-[1,3′-bipyridine]-2-one], 4.58; that for `Cc1ccc2c(c1)CN(c1ccc(N[C@H]3CC[C@H](Nc4nc5cc(C(F)(F)F)ccn5n4)C3)nc1)C2=O` [Example 85, 5-methyl-2-(6-(((1S,3S)-3-((7-(trifluoromethyl)-[1,2,4]triazolo[1,5-a]pyridin-2-yl)amino)cyclopentyl)amino)pyridin-3-yl)isoindolin-1-one], 5.59.
In the case of `O=C1c2ccc(F)cc2CN1c1ccc(N[C@H]2CC[C@H](Nc3nc4cc(C(F)(F)F)ccn4n3)C2)nc1` [Example 86, 5-fluoro-2-(6-(((1S,3S)-3-((7-(trifluoromethyl)-[1,2,4]triazolo[1,5-a]pyridin-2-yl)amino)cyclopentyl)amino)pyridin-3-yl)isoindolin-1-one], the pIC50 was 6.05.
In the case of `Cn1c2ccccc2c(=O)n1-c1ccc(N[C@H]2CC[C@H](Nc3nc4cc(C(F)(F)F)ccn4n3)C2)nc1` [Example 87] it was 6.22; in that of `Cc1cc2c(c(C#N)n1)CN(c1ccc(N[C@H]3CC[C@H](Nc4nc5cc(C(F)(F)F)ccn5n4)C3)nc1)C2=O` [Example 90, 6-methyl-1-carbonyl-2-(6-(((1S,3S)-3-((7-(trifluoromethyl)-[1,2,4]triazolo[1,5-a]pyridin-2-yl)amino)cyclopentyl)amino)pyridin-3-yl)-2,3-dihydro-1H-pyrrolo[3,4-c]pyridine-4-carbonitrile], 5.57; in that of `O=C1c2ncc(Cl)cc2CN1c1ccc(N[C@H]2CC[C@H](Nc3nc4cc(C(F)(F)F)ccn4n3)C2)nc1` [Example 95], 6.15.
In the case of `N#Cc1cnc2c(c1)CN(c1ccc(N[C@H]3CC[C@H](Nc4nc5cc(C(F)(F)F)ccn5n4)C3)nc1)C2=O` [Example 96] it was 4.90.
As to `Cc1nccc2c1CN(c1ccc(N[C@H]3CC[C@H](Nc4nc5cc(OC(F)F)ccn5n4)C3)nc1)C2=O` [Example 100], the pIC50 is 5.30.
`O=c1nc(O)ccn1-c1ccc(N[C@H]2CC[C@H](Nc3nc4cc(Cl)ccn4n3)C2)nc1` [Example 103] gave a pIC50 of 5.85.
`Cc1cc(N[C@H]2CC[C@H](Nc3nc4cc(C(F)(F)F)ccn4n3)C2)ncc1N1Cc2cccnc2C1=O` [Example 113] gave a pIC50 of 5.16. Compared with the last compound, the pIC50 is 0.69 log units lower.
In turn, `O=C1c2cccnc2CN1c1cnc(N[C@H]2CC[C@H](Nc3nc4cc(C(F)(F)F)ccn4n3)C2)c(F)c1` [Example 162] showed a pIC50 of 5.28.
In the case of `O=c1ccccn1-c1ccc(N[C@H]2CC[C@H](Nc3nc4cc(C(F)(F)F)ccn4n3)C2)nc1` [Example 426], the negative-log IC50 (pIC50) is 4.85.
